Measured values from patent US10092547B2, “Substituted aliphanes, cyclophanes, heteraphanes, heterophanes, hetero- heteraphanes and metallocenes useful for treating HCV infections” (priority 2011, dated 2018).

Columns and labels:
[1] = test system: HCV replicon (NS5A1b) in Huh-7 cells; experiment: microbe, parasite or virus in culture; assay type: cell-based; conditions: Hepatitis C virus, 72 h; NS5A1b; HCV replicon-containing Huh-7 cells, three days; read-out: EC50 (μM) NS5A1b
Method: (§1) Compounds claimed herein are tested for the ability to inhibit viral replication of the Hepatitis C replicon in cultured cells in which the HCV replicon construct has been incorporated. The HCV replicon system was described by Bartenschlager, et. al (Science, 285, pp. 110-113 (1999)). The replicon system is predictive of in vivo anti-HCV activity; compounds that are active in humans uniformly evidence activity in the replicon assay.
(§2) In this assay HCV replicon containing cells are treated with different concentrations of the test compound to ascertain the ability of the test compound to suppress replication of the HCV replicon. As a positive control, HCV replicon-containing cells are treated with different concentrations of interferon alpha, a known inhibitor of HCV replication. The replicon assay system includes Neomycin Phosphotransferase (NPT) as a component of the replicon itself in order to detect the transcription of replicon gene products in the host cell. Cells in which the HCV replicon is actively replicating have high levels of NPT; the level of NPT is proportional to HCV replication. […] The NPT level of each sample is measured using a captured ELISA.
(§3) A protocol for testing compounds for the ability to inhibit viral replication of the Hepatitis C replicon cultured cells in which the replicon construct has been incorporated, follows.
(§4) The HCV replicon contains, 5′-3′, the HCV-IRES, the neomycin phosphotransferase (neo) gene, the IRES of encephalomyocarditis virus, which directs translation of HCV sequences NS3 to NS5B, and the 3′-NTR. The sequence of the HCV replicon has been deposited in GenBank (Accession no. AJ242652).
(§5) The replicon is transfected into Huh-7 cells using standard methods such as electroporation.
(§6) The equipment and materials include, but are not limited to, Huh-7 HCV replicon-containing cells, maintenance media (DMEM (Dulbecco's modified Eagle media) supplemented with 10% FBS, L-glutamine, non-essential amino acids, penicillin (100 units/ml), streptomycin (100 micrograms/ml), and 500 micrograms/ml of Geneticin (G418), screening media (DMEM supplemented with 10% FBS, L-glutamine, non-essential amino acids, penicillin (100 units/ml) and streptomycin (100 micrograms/ml), 96 well tissue culture plates (flat bottom), 96 well plates (U bottom for drug dilution), Interferon alpha for positive control, fixation reagent (such as methanol: acetone), primary antibody (rabbit anti-NPTII), secondary antibody: Eu-N1 1, and enhancement solution.
(§7) HCV replicon-containing cells support high levels of viral RNA replicon replication when their density is suitable. Over-confluency causes decreased viral RNA replication. Therefore, cells must be kept growing in log phase in the presence of 500 micrograms/ml of G418. Generally, cells should be passed twice a week at 1:4-6 dilution. Cell maintenance is conducted as follows:
(§8) HCV replicon-containing cells are examined under a microscope to ensure that cells growing well. Cells are rinsed once with PBS and 2 ml trypsin is added. The cell/trypsin mixture is incubated at 37° C. in a CO2 incubator for 3-5 minutes. After incubation 10 ml of complete media is added to stop the trypsinization reaction. Cells are blown gently, put into a 15 ml tube, and spun at 1200 rpm for 4 minutes. The trypsin/medium solution is removed. Medium (5 ml) is added and the cells are mixed carefully. The cells are counted.
(§9) The cells are then seeded onto 96-well plates at a density of 6000-7500 cells/100 microliters/well (6-7.5×10^5 cells/10 ml/plate). The plates are then incubated at 37° C. in a 5% CO2 incubator.
(§10) Cells are examined under a microscope approximated 24 hours after seeding and prior to adding drugs. If counting and dilution were performed correctly, cells are 60-70% confluent and nearly all cells should attach and spread evenly in the well.
(§11) HCV replicon-containing cells are rinsed with once PBS once; 2 mls of trypsin are then added. Cells are incubated at 37° C. in a 5% CO2 incubator for 3-5 minutes. […]

HCV replicon (NS5A1b) = experiment: microbe, parasite or virus in culture; assay type: cell-based; conditions: Hepatitis C virus, 72 h, HCV replicon-containing cells, three days
Method: as §1, §2, §3, §4, §5, §6, §7, §8, §9, §10, §11

COC(=O)N[C@H](C(=O)N1CCC[C@H]1c1nc2cc(-c3cc4ccc3CCc3ccc(c(-c5ccc6[nH]c([C@@H]7CCCN7C(=O)[C@@H](NC(=O)OC)[C@@H](C)OC)nc6c5)c3)CC4)ccc2[nH]1)[C@@H](C)OC [Compound 109]
EC50 [1]: 0.00883 µM
EC50 (HCV replicon (NS5A1b)): 0.0118 µM

COC(=O)N[C@H](C(=O)N1C[C@H](F)C[C@H]1c1nc2cc(-c3cc4ccc3CCc3ccc(c(-c5ccc6[nH]c([C@@H]7C[C@@H](F)CN7C(=O)[C@@H](NC(=O)OC)C(C)C)nc6c5)c3)CC4)ccc2[nH]1)C(C)C [Compound 87]
EC50 [1]: 0.00653 µM
EC50 (HCV replicon (NS5A1b)): 0.0184 µM

COC(=O)N[C@@H](CCSC)C(=O)N1C[C@H](F)C[C@H]1c1nc2cc(-c3cc4ccc3CCc3ccc(c(-c5ccc6[nH]c([C@@H]7C[C@@H](F)CN7C(=O)[C@H](CCSC)NC(=O)OC)nc6c5)c3)CC4)ccc2[nH]1 [Compound 88]
EC50 [1]: 0.00643 µM
EC50 (HCV replicon (NS5A1b)): 0.0618 µM

CC[C@H](C)[C@H](NC(=O)OC)C(=O)N1CCC[C@H]1c1nc2cc(-c3cc4ccc3CCc3ccc(c(-c5ccc6[nH]c([C@@H]7CCCN7C(=O)[C@@H](NC(=O)OC)[C@@H](C)CC)nc6c5)c3)CC4)ccc2[nH]1 [Compound 103]
EC50 [1]: < 0.00317 µM
EC50 (HCV replicon (NS5A1b)): 0.47 µM

COC(=O)N[C@H](C(=O)N1C2CCC(C2)[C@H]1c1nc2cc(-c3cc4ccc3CCc3ccc(c(-c5ccc6[nH]c([C@@H]7C8CCC(C8)N7C(=O)[C@@H](NC(=O)OC)C(C)C)nc6c5)c3)CC4)ccc2[nH]1)C(C)C [Compound 42]
EC50 [1]: < 0.0032 µM
EC50 (HCV replicon (NS5A1b)): 0.0044 µM

CC[C@H](C)[C@H](NC(=O)OC)C(=O)N1[C@H](c2nc3cc(-c4cc5ccc4CCc4ccc(c(-c6ccc7[nH]c([C@@H]8C[C@@H]9CCCC[C@@H]9N8C(=O)[C@@H](NC(=O)OC)[C@@H](C)CC)nc7c6)c4)CC5)ccc3[nH]2)C[C@@H]2CCCC[C@@H]21 [Compound 102]
EC50 [1]: 0.0119 µM
EC50 (HCV replicon (NS5A1b)): 0.0358 µM

COC(=O)N[C@H](C(=O)N1CCC[C@H]1c1nc2cc(-c3cc4ccc3CCc3ccc(c(-c5ccc6[nH]c([C@@H]7CCCN7C(=O)[C@@H](NC(=O)OC)c7ccccc7)nc6c5)c3)CC4)ccc2[nH]1)c1ccccc1 [Compound 49]
EC50 [1]: 0.0102 µM
